Measured values taken from US20200237909A1, “METHODS OF TREATING OR PREVENTING BREAST CANCER METASTASES USING ANTIBODIES TO JAGGED1 AND CHEMOTHERAPEUTIC AGENTS” (The Trustees of Princeton University, priority 2017, published 2020).

Columns and labels:
SCP28 [1] = test: Cleaved PARP and cleaved caspase-3 immunoblotting after cisplatin; assay type: cell-based, human; conditions: SCP28 single-cultured cells, 72 hours post-treatment
Protocol: (§1) FIG. 7. Pro-survival effect of osteoblast Jagged1 on cancer cells can be blocked by 15D11. (A) 3-D tumorsphere culture of MCF7, SCP28, and SUM1315-M1B1 cells, alone or in co-cultured with osteoblast cells, were treated with indicated concentrations of cisplatin or docetaxel. Two days after the chemotherapy, the surviving tumor spheres were counted under the fluorescent microscope. n=3. *p<0.05 by Student's t-test. (B) Cell culture of SCP28 cells alone or in co-culture with MC3T3-E1 pre-osteoblast cells were treated with PBS control or cisplatin. Protein samples were collected at 6 hr, 24 hr, and 72 hr later. Cleaved PARP and cleaved caspase-3 were determined by immunoblotting. # marks full length PARP and * marks cleaved PARP. […] Hind limb bones were fixed and cryo-sectioned for IF staining against CC3 for apoptotic cells and GFP for tumor cells (E), and CC3 positive apoptotic cells among GFP-positive tumor cells were quantified in F. Size bar: 25 μm. n=5. **p<0.01 by Student's t-test. […] Tumor cells in the bone were quantified based on BLI imaging at Day 1 and Day 4. […]
To mimic chemoresistance and tumor seeding effects by osteoblast lineage cells in vitro, an in vitro 3D tumor-stroma co-culture assay (Wang et al., 2015) was adapted. […] Cleaved PARP and cleaved caspase-3 (CC3) status were analyzed by immuno-blotting at different time points after cisplatin treatment. […]

SCP28-Jagged1 cells = test: SCP28-Jagged1 bone metastasis, late treatment with 15D11 and paclitaxel; assay type: in vivo, mice; conditions: in words
Protocol: To evaluate the combinatorial effect of 15D11 with conventional chemotherapy, we treated bone metastasis generated by SCP28-Jagged1 cells with 15D11 and paclitaxel, using the late treatment protocol (treatment initiated 1 week after IC injection) (FIG. 3A). […] Mice were treated with IgG (as negative control), 15D11, paclitaxel, or both, one week after IC injection of SCP28-Jagged1 to establish bone metastases.
For experimental bone metastasis, three models were used using intra-cardiac (IC), intra-iliac artery (IIA), and intra-tibia (i.t.) injection methods, as previously described (Andersen et al., 2003; Sethi et al., 2011; Wang et al., 2015). Bone metastasis burden was monitored by weekly BLI and X-ray imaging. At the experimental endpoint, mice were euthanized for bone histology analysis and half of the bone samples were used for μCT imaging and bone density quantification.
The initial treatment is either one day before tumor cell injection or one week after tumor cell injection as described in each experiment. For IgG or 15D11 antibody treatment, mice were i.p. injected at the dosing of 10 mg/kg, twice a week. […] For paclitaxel treatment, paclitaxol powder was first dissolved in 95% ethanol, sonicated and shaken overnight, before mixing 1:1 with cremophor (Sigma Catalog#:769193-1KG) to reach the final concentration of 20 mg/ml. […]

SCP28 [2] = test: CC3 immunofluorescent staining of GFP-positive tumor cells in mouse bone sections; assay type: in vivo, mice; conditions: after two rounds of treatment
Protocol: as §1
Hindlimb bones were excised from mice at the end point of each experiment, immediately after the last BLI time point. […] For quantitative analysis of lesion area, a 10× objective was used to focus on the tumor region of interest and images were acquired using the AxioCamICc3 camera set to an exposure of around 100 ms. […]

Row | SMILES | cleaved PARP and CC3 (SCP28 [1]) | tumor burden at the end point (SCP28-Jagged1 cells) | CC3 positive tumor cells (SCP28 [2])
1 | N.N.[Cl][Pt][Cl] [cisplatin] | strong induction | – | –
2 | CC(=O)O[C@H]1C(=O)[C@@]2(C)[C@H]([C@H](OC(=O)c3ccccc3)[C@]3(O)C[C@H](OC(=O)[C@H](O)[C@@H](NC(=O)c4ccccc4)c4ccccc4)C(C)=C1C3(C)C)[C@]1(OC(C)=O)CO[C@@H]1C[C@@H]2O [paclitaxel] | – | only a mild reduction of tumor burden | substantial numbers of tumor cells
